From PubChem BioAssay (NCI)
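Five concentrations, 48 hours, 96-well plates. GI50 is the concentration that inhibits growth by half. TGI: concentration producing complete growth inhibition.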

What was measured:
Assay in all cases: growth of human tumour cells (NCI), 48 h
DU-145 prostate = system: DU-145 prostate
HOP-92 NSCLC = system: HOP-92 NSCLC
SK-MEL-2 melanoma = system: SK-MEL-2 melanoma
TK-10 renal = system: TK-10 renal
COLO 205 colon = system: COLO 205 colon
U251 CNS = system: U251 CNS
A549 NSCLC = system: A549 NSCLC
OVCAR-3 ovarian = system: OVCAR-3 ovarian
786-0 renal = system: 786-0 renal
HOP-62 NSCLC = system: HOP-62 NSCLC

| SMILES | GI50 (DU-145 prostate) [µM] | TGI (DU-145 prostate) [µM] | GI50 (HOP-92 NSCLC) [µM] | TGI (HOP-92 NSCLC) [µM] | GI50 (SK-MEL-2 melanoma) [µM] | TGI (SK-MEL-2 melanoma) [µM] | GI50 (TK-10 renal) [µM] | TGI (TK-10 renal) [µM] | GI50 (COLO 205 colon) [µM] | TGI (COLO 205 colon) [µM] | GI50 (U251 CNS) [µM] | TGI (U251 CNS) [µM] | GI50 (A549 NSCLC) [µM] | TGI (A549 NSCLC) [µM] | GI50 (OVCAR-3 ovarian) [µM] | TGI (OVCAR-3 ovarian) [µM] | GI50 (786-0 renal) [µM] | TGI (786-0 renal) [µM] | GI50 (HOP-62 NSCLC) [µM] | TGI (HOP-62 NSCLC) [µM] |
| --- | --- | --- | --- | --- | --- | --- | --- | --- | --- | --- | --- | --- | --- | --- | --- | --- | --- | --- | --- | --- |
| O=c1[nH]cnc2c1nnn2C1OC(CO)C(O)C1O (stereo not given) | 0.548 | 14 | 1.66 | > 100 | 12.3 | > 100 | 1.5 | > 30.2 | 1.44 | 9.94 | 20.4 | > 100 | 29.1 | > 100 | 0.816 | 4.98 | 2.58 | > 100 | 2.67 | > 100 |
| Cn1c(=O)c(Oc2cccc(F)c2)cc2cnc(NC3CCOCC3)nc21 | > 25 | > 25 | 4.47 | 24.5 | > 25 | > 25 | > 22 | > 25 | > 25 | > 25 | > 25 | > 25 | > 25 | > 25 | > 25 | > 25 | > 25 | > 25 | > 25 | > 25 |
| OCCCCC#Cc1ccccc1C#Cc1ccccc1F | 35.7 | > 100 | 22 | 64.2 | 23.9 | 52.5 | 20.8 | 49.7 | 16.4 | 31.3 | 16 | 33.6 | 15.7 | 34.5 | 19.7 | 43.6 | 14.3 | 29.8 | 12 | 26.1 |
